Laboratory results from patent US20110091931A1, “Methods and Kits for Determining Oxygen Free Radical (OFR) Levels in Animal and Human Tissues as a Prognostic Marker for Cancer and Other Pathophysiologies” (COLBY PHARMACEUTICAL COMPANY, priority 2009, published 2011).
“Also recorded” adds a separate entry of the source.

Experiments:
[1] = system: cytochrome P450 (CYP) class of enzymes; conditions: compared with I3C; cited from earlier work
androgen receptor = biological target: T1, androgen receptor (Homo sapiens, UniProt P10275, T878A); conditions: human LNCaP prostate cancer cells; cited from earlier work
T1 construct: androgen receptor in human LNCaP prostate cancer cells in laboratory studies; host or cells: LNCaP
T1 sequence (P10275 1-920 T878A): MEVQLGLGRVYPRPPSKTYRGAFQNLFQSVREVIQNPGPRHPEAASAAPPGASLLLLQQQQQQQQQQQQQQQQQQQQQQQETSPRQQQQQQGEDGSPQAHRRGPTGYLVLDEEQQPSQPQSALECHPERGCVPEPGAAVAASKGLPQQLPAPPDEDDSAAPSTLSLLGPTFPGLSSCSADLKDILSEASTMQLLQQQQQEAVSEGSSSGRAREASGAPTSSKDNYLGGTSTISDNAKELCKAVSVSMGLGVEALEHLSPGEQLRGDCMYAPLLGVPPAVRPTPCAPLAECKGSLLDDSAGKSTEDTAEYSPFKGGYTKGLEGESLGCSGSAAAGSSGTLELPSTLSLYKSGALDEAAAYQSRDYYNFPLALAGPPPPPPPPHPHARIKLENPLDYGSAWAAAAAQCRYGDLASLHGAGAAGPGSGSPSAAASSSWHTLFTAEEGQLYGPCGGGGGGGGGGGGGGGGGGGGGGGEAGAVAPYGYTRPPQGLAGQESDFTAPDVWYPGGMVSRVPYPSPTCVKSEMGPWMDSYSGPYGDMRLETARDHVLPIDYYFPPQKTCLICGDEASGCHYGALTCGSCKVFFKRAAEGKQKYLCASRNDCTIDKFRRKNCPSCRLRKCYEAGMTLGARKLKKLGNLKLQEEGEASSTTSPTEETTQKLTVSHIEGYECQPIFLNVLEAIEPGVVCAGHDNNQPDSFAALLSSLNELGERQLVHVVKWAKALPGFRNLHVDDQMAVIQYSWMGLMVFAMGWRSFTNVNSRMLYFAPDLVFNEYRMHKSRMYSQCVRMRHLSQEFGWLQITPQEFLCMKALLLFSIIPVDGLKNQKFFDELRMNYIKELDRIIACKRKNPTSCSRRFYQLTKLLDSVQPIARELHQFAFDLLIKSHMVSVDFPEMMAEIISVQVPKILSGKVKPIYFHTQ

prostate cancer cells = conditions: cited from earlier work
[2] = in vivo, iv
LNCaP cells [3] = assay: DCF dye oxidation assay of androgen (R1881) induced ROS production; assay type: cell-based, human
Protocol: SSAT induction is a major source of androgen induced oxidative stress. In order to confirm that SSAT was the major source of androgen induced oxidative stress, we developed and used a stable LNCaP cell clone transfected with plasmid transcribing siRNA designed to silence SSAT mRNA expression. The SSAT mRNA level in these cells was determined by qRT-PCR method. In the cells transfected only with the vector, the SSAT mRNA level increased by over 8-fold after 96 h treatment with R1881, whereas in cells stably transfected with SSAT siRNA (si22), R1881 under similar treatment condition induced less than 2-fold increase in the SSAT transcript, showing over 75% silencing of SSAT mRNA expression. The ROS production induced by androgen analog R1881 in these cells was measured by DCF dye oxidation assay. The green fluorescence of oxidized DCF in androgen treated LNCaP cells was shown. The effect of SSAT silencing on the R1881 induced ROS production measured by DCF assay was also shown. The ratio of DCF fluorescence (green):DNA fluorescence (blue) for each of the treated well of a 96 well plate normalized to that of the average of control untreated wells represents the ROS level per cell relative to that in control untreated cells. The data points are the mean of numbers obtained from repeat experiments using thirty identically treated wells.
Each data point was an average of readings from six wells repeated twice in triplicates. […] The ROS levels of all CPC-200 pretreated cells were normalized to the ROS levels of cells treated with CPC-200 alone.

TRAMP tumors = assay: Chemopreventive efficacy against TRAMP tumors (tumor development, survival, PET-CT); assay type: in vivo, mouse
Protocol: Mice are treated with the optimal dose regimen and A cohort of 10 mice from each treatment will be euthanized at 24 weeks of age, when primary tumors are evident in the control group and the tumors collected for pharmacology, necropsy and other toxicity and tumor burden analyses. […] The remaining 20 mice per condition were followed for survival. Body weights and tumor volumes were measured once weekly throughout the study. A cohort of 10 mice in this treatment group is also monitored over the course of drug treatment by PET-CT scan for tumor growth and metastases. Each mouse is injected with ^124I labeled NM-404 per standard protocol and imaged on the microPET-microCT scanner.

LNCaP cells [4] = assay: HPLC quantitation of polyamine and acetyl polyamine levels in LNCaP cells; assay type: cell-based, human
Excerpt: This method is routinely used in the analytical laboratory of the core facility of Cancer Centers and was accessible for quantitative assays necessary for the PK/PD determinations. […] Each data point was an average of two determinations where sample cell pellets were collected from three independent experiments.

[5] = system: prostate tissue in TRAMPxFVB animals; assay: In vivo hydroethidine (HEt) dye oxidation in prostate tissue; parameters: species or system mouse
Excerpt: In parallel to standardizing and validating quantitation of cellular fluorescence intensities with the Bioimager system, we also standardized conditions for fluorescence dye oxidation in animal tissues in vivo and in human tissue ex vivo using standard fluorescence microscopy. For these studies, another dye hydroethidine (HEt) was used. HEt in reduced form is colorless. It is oxidized by the ROS superoxide to ethidium (E^+). The intense fluorescence of E^+ion can be monitored at 488 excitation/595 emission frequencies at sub-nanomolar concentrations. […] After sacrifice, animals were exsanguinated to reduce fluorescence interference from blood hemoglobin. […] Unlike what observed in DCF dye oxidation assay in LNCaP cells where nuclei are more fluorescent than are the cytoplasms (FIG. 5B), the HEt dye fluorescence in the cytoplasm of the normal prostatic lumen is more than that in the nuclei. […] This is ascertained when the fluorescence intensities of HEt dye in the human tumor and normal tissue ROS are quantitated, as described herein.
We standardized the in vivo method of Hydroethidine (HEt) dye oxidation. […] Prostate tissues in paraffin blocks were sectioned on a microtome, thin sections were de-paraffinized and observed under a fluorescence microscope at 480 nm excitation and 600 nm emission wavelengths. […]

[6] = Observed adverse side effects of CPC-200 treatment in vivo

Compound: c1ccc2c(Cc3c[nH]c4ccccc34)c[nH]c2c1 [DIM, 3,3′-Diindolylmethane]
- induction of cytochrome P450 (CYP) class of enzymes [1]: to a lesser extent than does I^3C
- androgen receptor activation (androgen receptor): block androgen receptor activation
- binding of dihydrotestosterone (DHT) to the androgen receptor (androgen receptor): decreased binding
- PSA (prostate cancer cells): downregulation of PSA
- proliferation of prostate cancer cells (prostate cancer cells; in vitro and in a mouse xenograft model): inhibition of proliferation

Compound: CCN1c2cc(N)ccc2-c2ccc(N)cc2C1c1ccccc1 (centres unmarked) [HEt, hydroethidine]
- safety of i.v. injection [2]: can be safely injected i.v.

Compound: N,N′-bis(butadienyl)-1,4-butanediamine [CPC-200]
- R1881 (≧1 nM) induced ROS production (LNCaP cells [3]; LNCaP cells, 24 h pretreatment with 25 μM CPC-200, R1881 96 h): effectively blocked
- cellular ROS levels (LNCaP cells [3]; LNCaP cells, CPC-200 treatment alone (25 μM)): minor decrease
- androgen-induced oxidative stress in cultured androgen-dependent human prostate cancer cells (LNCaP cells [3]; summary statement): significantly reduces oxidative stress; also recorded: almost completely blocked
- overall survival (TRAMP tumors; TRAMP mice): greatly increases; also recorded: markedly increased
- time to spontaneous prostate tumor development (TRAMP tumors; TRAMP model): markedly delays; also recorded: greatly delayed
- prostate tumor by PET-CT scan (TRAMP tumors; TRxF male mice, scans at age 8, 12, 18 and 24 weeks): no prostate tumor
- R1881 induced increase in putrescine and spermidine (LNCaP cells [4]; 24 h CPC-200 pretreatment of R1881-treated cells): almost completely blocked
- effect on most cellular polyamine levels (LNCaP cells [4]; CPC-200 treatment alone): little or no significant effect
- oxidative stress in prostate tissue / pre-neoplastic lesions in vivo ([5]; TRAMP model, summary statement): significantly reduces oxidative stress; also recorded: unambiguous reduction in oxidative stress
- HEt reporter dye monitored oxidation in prostatic tissue ([5]; TRAMPxFVB mice, six administrations of 25 mg/kg CPC-200 i.p. once every two weeks, HEt 8 mg/kg i.v.): no significant HEt reporter dye monitored oxidation is detected
- adverse side effects [6]: without any observable adverse side effects
